Assay results from US20240115556A1, “A JMJD6 TARGETING AGENT FOR TREATING PROSTATE CANCER” (Cancer Research Technology Limited, priority 2020, published 2024).

Key:
[1] = target: T1, JMJD6 (1-362) (Homo sapiens, UniProt Q6NYC1); assay: LC-MS assay for JMJD6 inhibition (hydroxylation of LUC7L2 peptide substrate); format: biochemical; set-up: dose or concentration left out as unconfirmed; conditions: 8-point 3-fold serial dilution of 2,4-PDCA, 2 hours at 37° C.
T1 construct: by JMJD6 (1-362, prepared as reported); made in house
Text: Liquid Chromatography Mass Spectrometry (LC-MS) assays for JMJD6 inhibition by 2,4-PDCA Hydroxylation of a 12-mer peptide substrate (NPKRSRSREHRR, prepared with a C-terminal amide) of the LUC7L2 pre-mRNA splicing factor by JMJD6 (1-362, prepared as reported) was monitored by liquid chromatography mass spectrometry (LC-MS) using an Agilent 1290 infinity II LC system equipped with an Agilent 1290 infinity binary pump and coupled to an Agilent 6550 Accurate Mass Quadrupole Time of Flight (Q-TOF) mass spectrometer. Note this construct has hydroxylation but not demethylation activity. All JMJD61-362 enzyme reactions were performed in 50 mM Tris.Cl pH 7.5 (prepared fresh each day) at 37° C. […] Peptide ionization was monitored in the positive ion electrospray ionisation (ESI) mode with a drying gas temperature of 280° C., a drying gas flow rate of 13 L/minute, nebulizer gas pressure of 40 PSI, sheath gas temperature of 350° C., sheath gas flow rate of 12 L/min and a nozzle voltage of 1000V. […] The % conversion of the peptide substrate to the +16 hydroxylated peptide was calculated using the equation: % conversion=100×hydroxylated/(hydroxylated+non-hydroxylated peptide). The IC50 for 2,4-PDCA was determined from non-linear regression curve fitting using GraphPad prism 6.0.

[2] = tested on: AR-V7 in 22Rv1 PC cells; assay: AR-V7 protein (WB) and mRNA (qPCR) levels in 22Rv1 PC cells; format: cell-based; conditions: 2,4-PDCA for 48 hours
Description: (§1) All cell lines were purchased from LGC Standards/ATCC unless otherwise specified and grown in recommended media at 37° C. in 5% CO2. Short tandem repeat profiling was performed using the Cell Authentication Service by Eurofins Medigenomix to ensure the quality and integrity of the cell lines used. Cells lines were tested for mycoplasma after thawing, then regularly every 6-8 weeks during culture using the Venor®GeM Advance Mycoplasma Detection Kit (Minerva Biolabs). Early passages were thawed every 3-months (after approximately 15-20 passages). Small interfering RNA (siRNA): All siRNAs were ONTARGETplus pools (Dharmacon; GE heathcare), and used in combination with 0.4% RNAiMax transfection reagent (ThermoFisher Scientific) as per manufacturer's instructions. siRNA experiments were performed at 50 nM, unless otherwise specified, for 72-hours. […]
(§2) 0.45 μm pore size (Millipore). […] Chemiluminescence was then detected using the Chemidoc Touch imaging system (BioRad). Quantitative Reverse Transcription Polymerase Chain Reaction (qRT-PCR)
(§3) The RNeasy Plus Mini kit (Qiagen) was used to extract cellular RNA as per manufacturer's instructions. […] The fold change in mRNA expression levels was calculated by the comparative Ct method, using the formula 2-(-(ΔΔCt).

[3] = at least in some cell types; cited from earlier work
[4] = tested on: 12-mer peptide substrate of the LUC7L2 pre-mRNA splicing factor
[5] = tested on: AR-V7 in LNCaP95 PC cells; assay: AR-V7 protein (WB) and mRNA (qPCR) levels in LNCaP95 PC cells; format: cell-based; conditions: I-BET151 for 48 hours
Description: as §1, §2, §3

[6] = tested on: JMJD6 protein in LNCaP95 cells; assay: WB of JMJD6 protein in LNCaP95 cells treated with I-BET151; format: cell-based; conditions: I-BET151 for 48 hours
Description: Subsequent to cell lysis with RIPA buffer (Pierce) supplemented with cOmplete™ EDTA-free Protease Inhibitor Cocktail (Roche), protein extracts (20 μg) were separated by electrophoresis on 4-12% NuPAGE® Bis-Tris gel plates (Invitrogen) prior to transfer onto Immobilon-P™ PVDF membranes of 0.45 μm pore size (Millipore). Membranes were then incubated sequentially with primary and then secondary antibody in 5% milk and tris-buffered saline (TBS) and Tween®20 (Sigma Aldrich). Chemiluminescence was then detected using the Chemidoc Touch imaging system (BioRad). Quantitative Reverse Transcription Polymerase Chain Reaction (qRT-PCR)

[7] = tested on: AR-V7 in VCaP PC cells; assay: AR-V7 protein (WB) and mRNA (qPCR) levels in VCaP PC cells; format: cell-based; conditions: 72 hour, siRNA 25 nM, Enzalutamide 10 µM
Description: as §1, §2, §3

[8] = tested on: VCaP PC cells; assay: CellTiter-Glo Luminescent Cell Viability Assay, VCaP; format: cell-based; conditions: siRNA 25 nM; Enzalutamide; after 5-days; vs control siRNA + DMSO 0.1%
Description: Cells were plated in 48-well tissue culture plates and treated as indicated the following day, then grown for 6-days or until 80-90% confluence. To quantify growth of LNCaP, LNCaP95, 22Rv1 and PNT2 cell lines, cells were fixed with 10% (w/v) aqueous trichloroacetic acid and incubated at 4° C. for 30-minutes prior to washing and air-drying. Subsequently cells were stained with sulforhodamine B (SRB) for 30-minutes prior to excess dye removal with 1% (v/v) aqueous acetic acid and further air-drying. Following this, protein-bound dye was dissolved in 10 mM Tris base solution, transferred to a 96-wellplate, and optical density determined at 510 nm using the Synergy HT microplate reader (BioTek). VCaP cell growth assays were analyzed using CellTiter-Glo® Luminescent Cell Viability Assay (Promega) as per manufacturer instructions, and luminescence quantified using the Synergy HT microplate reader (BioTek).

## O=C(O)c1ccnc(C(=O)O)c1 [2,4-PDCA, pyridine-2,4-dicarboxylic acid]
[1]
  isolated JMJD6-mediated lysyl-5-hydroxylation of LUC7-Like (LUC7L): dose-dependent reduction
[2]
  AR-V7 protein levels: dose-dependent reduction
[3]
  permeability: low

## JMJD6 (1-362)
[4]
  lysyl-5-hydroxylation of the peptide substrate (LC-MS, % conversion to the +16 hydroxylated peptide): 2,4-PDCA caused dose-dependent reduction in isolated JMJD6-mediated lysyl-5-hydroxylation of the known downstream target LUC7-Like (LUC7L)

## COc1cc2c(cc1-c1c(C)noc1C)ncc1[nH]c(=O)n([C@H](C)c3ccccn3)c12 [I-BET151]
[5]
  AR-V7 protein expression: dose-dependent reduction
[6]
  JMJD6 protein expression: dose-dependent reduction

## CNC(=O)c1ccc(N2C(=S)N(c3ccc(C#N)c(C(F)(F)F)c3)C(=O)C2(C)C)cc1F [enzalutamide]
[7]
  AR-V7 protein (WB) levels: increase significantly
[8]
  VCaP PC cell viability: reduced
